Experiment [1] has as its target gmk/TK-trunc fusion protein (murine guanylate kinase fused to wild-type HSV-1 TK without its first nine amino acids; pET23d:gmk/TK-trunc) (UniProt P0DTH5+Q64520). The following applies: Table X; purified from E. coli.
Experiment [2] has as its target gmk/TK-fl fusion protein (murine guanylate kinase fused to the entire wild-type HSV-1 TK; pET23d:gmk/TK-fl) (UniProt P0DTH5+Q64520). The following applies: Table X; purified from E. coli.
The subject of experiment [3] is ts13 BHK tk- cells transfected with pCMV:132 (HSV-1 TK mutant 132). In words: Cell killing by GCV and ACV, Alamar Blue viability (ED50). Format: cell-based, baby hamster. The following applies: Mesocricetus auratus, 96 h; effective dose for 50% cell killing, after 4 days on nucleoside analog, pooled G418 resistant clones. As for the experimental part: (§1) Briefly, the cell transfections are performed as follows. Approximately 5 x 10^5 ts13 BHK tk cells (ATCC CRL-1632) are plated on 100mm dishes in DMEM + 10% calf serum. For each transfection 1 µg of pSV2neo and 10µg of a pCMV construct (pCMV, pCMV:TK-wrong (HSVTK in the wrong orientation relative to the promoter), pCMV:HSVTK, pCMV:30, pCMV:75 or pCMV:132 DNA) in 0.25M CaCl2 are mixed with 0.5ml 2 x BBS (see Chen and Okayama) and preincubated at 37°C at 2.5% CO2 for […]. The CaCl2/DNA mix is added dropwise to the plates and mixed in well. After a 24 hour incubation at 37°C in a 2.5% CO2 wet incubator, the cells are rinsed twice with Dulbecco PBS minus Ca/Mg and fed with fresh DMEM + 10% calf serum. Plates are incubated at 37°C with 6% CO2. After 72 hours post-transfection the cells are split 1:3 and plated in DMEM + 10% calf serum containing G418 at 600µg/ml.
(§2) The cells are selected on G418 (600µg/ml) at 37°C for 17 days. […]. Approximately 30-40 clones are selected in this manner for each transfected DNA containing a tk gene in the correct orientation. The pCMV and pCMV:TK-wrong transfections yielded between 130 and 140 clones each. G418 resistant clones are harvested, pooled and plated at a density of 2000 cells/well in 100µl DMEM + 10% calf serum and 200µg/ml G418 + 6% CO2 in 96 well microtiter plates. […]. After three days in the presence of the nucleoside analog, Alamar Blue is added and 6 hours later the plates are scanned using a fluorometer as according to the manufacturer's protocol (Alamar Biosciences, Inc., Sacramento, CA). The plates are incubated a further 24 hours at 37°C and scanned again.
(§3) Determination of the fluorescence level of cells incubated in the presence of Alamar Blue directly relates to cell viability.

In experiment [4] the test system is ts13 BHK tk- cells transfected with pCMV:30 (HSV-1 TK mutant 30). Described as above. The experiment is classed as cell-based, baby hamster. The settings on record: Mesocricetus auratus, 96 h; effective dose for 50% cell killing, after 4 days on nucleoside analog, pooled G418 resistant clones. The method, then:
as §1, §2, §3

Experiment [5] has as its system ts13 BHK tk- cells transfected with pCMV:75 (HSV-1 TK mutant 75). Described as above. Format: cell-based, baby hamster. The settings on record: Mesocricetus auratus, 96 h; effective dose for 50% cell killing, after 4 days on nucleoside analog, pooled G418 resistant clones. As for the experimental part: as §1, §2, §3
Experiment [6] relates to ts13 BHK tk- cells transfected with pCMV:HSVTK (wild-type HSV-1 TK). Described as above. The experiment is classed as cell-based, baby hamster. The following applies: Mesocricetus auratus, 96 h; effective dose for 50% cell killing, after 4 days on nucleoside analog, pooled G418 resistant clones. As for the experimental part:
as §1, §2, §3

Experiment [7] deals with Rat C6 cells expressing TK mutant 30. Put plainly: Rat C6 kill curves with GCV and ACV. Format: cell-based. The following applies: Table VIII. An excerpt: (§4) The seven mutants were subcloned into the mammalian expression vector, pREP8D7:dualGFP. This vector contains a constitutive metallothionin promoter, which drives the expression of green flourescent protein (GFP), and an RSV LTR promoter, which stimulated expression of the TK mutants. The vector also contains a histidinol resistance gene for selection of transformants. Purified vector DNA of these constructs was used to transfect BHK tk- cells by electroporation. The transfectants were selected by resistance to histidinol and sorted using FACS analysis for GFP expression. Pools of transfectants were then assayed for sensitivity to GCV or ACV over a range of prodrug doses. […] Table VIII illustrates the IC50 values from Rat C6 kill curves with the SR11, SR26, and SR39 mutants.

Experiment [8] deals with Rat C6 cells expressing TK mutant 411. In words: Rat C6 kill curves with GCV and ACV. The experiment is classed as cell-based. The settings on record: Table VIII.
Excerpt: as §4

Experiment [9] has as its system Rat C6 cells expressing TK mutant 75. Put plainly: Rat C6 kill curves with GCV and ACV. Format: cell-based. The following applies: Table VIII.
Excerpt: as §4

The subject of experiment [10] is Rat C6 cells expressing TK mutant SR11. Put plainly: Rat C6 kill curves with GCV and ACV. The settings on record: Table VIII. Format: cell-based.
Excerpt: as §4

The subject of experiment [11] is Rat C6 cells expressing TK mutant SR26. Put plainly: Rat C6 kill curves with GCV and ACV. The following applies: Table VIII. Format: cell-based.
Excerpt: as §4

The subject of experiment [12] is Rat C6 cells expressing TK mutant SR39. Put plainly: Rat C6 kill curves with GCV and ACV. The settings on record: Table VIII. The experiment is classed as cell-based.
Excerpt: as §4

Experiment [13] relates to Rat C6 cells expressing wild-type TK. In words: Rat C6 kill curves with GCV and ACV. Format: cell-based. The settings on record: Table VIII.
Excerpt: as §4

Experiment [14] relates to rat C6 cells expressing gmk/TK-trunc fusion protein. Put plainly: Ganciclovir dose response curve, fusion protein against wild-type TK. Format: cell-based. The settings on record: Figure 31; fusion protein being the superior one.
The test system of experiment [15] is rat C6 glioblastoma cells transfected with TK mutant 30, subcutaneous tumor. In words: Mouse xenograft tumor model with prodrug treatment. The settings on record: prodrug twice a day for 5 days from day 5; Figures 32-34. The experiment is classed as in vivo, Nude mice. The method, then: (§5) Rat C6 glioblastoma cells were transfected with the stable expression vector pREP8D7:dualGFP as described above containing various TK mutants. […] Experiments were carried out to establish prodrug dosing levels for tumor ablation and efficacy of therapy. Nude mice (JAX Labs, Bar Harbor, Maine) were injected subcutaneously with 0.5 x10^6 transfected rat C6 cells. After 5 days, prodrugs (ACV and GCV) were administered twice a day for a further 5 days. Prodrug was given at either of two concentrations (shown as mg/kg). During this period and for an additional 6 days, tumor size was monitored by caliper measurement every other day. At the end of the period, mice were sacrificed and the tumors excised and weighed.

Experiment [16] concerns rat C6 glioblastoma cells transfected with TK mutant SR39, subcutaneous tumor. In words: Mouse xenograft tumor model with prodrug treatment. Format: in vivo, Nude mice. The following applies: prodrug twice a day for 5 days from day 5; Figures 32-34. As for the experimental part:
as §5

The target of experiment [17] is T1, HSV-1 thymidine kinase mutant 75 (LIF-ALL library, codons 159-161 and 168-170 randomized; pET23d:75) (Human herpesvirus 1, UniProt P0DTH5).
T1 sequence (P0DTH5 1-376): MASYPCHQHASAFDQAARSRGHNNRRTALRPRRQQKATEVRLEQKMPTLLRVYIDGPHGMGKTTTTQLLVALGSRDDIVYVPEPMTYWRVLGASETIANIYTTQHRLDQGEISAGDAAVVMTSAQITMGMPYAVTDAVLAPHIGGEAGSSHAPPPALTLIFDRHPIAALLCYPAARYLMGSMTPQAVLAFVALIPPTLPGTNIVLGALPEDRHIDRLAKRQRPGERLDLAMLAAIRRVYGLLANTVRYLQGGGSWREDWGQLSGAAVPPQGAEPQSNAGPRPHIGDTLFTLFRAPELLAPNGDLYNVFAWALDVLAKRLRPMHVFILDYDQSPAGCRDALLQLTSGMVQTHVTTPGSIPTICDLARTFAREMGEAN
The following applies: Table V.
Procedure: The culture is incubated at 37°C overnight. The following day the 5ml culture is used to inoculate 1L M9ZB + cabenicillin at 20µg/ml and the culture allowed to grow at 37°C to OD600 0.1. At that point IPTG is added to 0.4mM and the culture incubated a further 3 hours. The cells are chilled on ice, pelleted by centrifugation and the pellets washed once in cell wash buffer (50mM Tris, pH 7.5, 5mM EDTA, 10% sucrose) prior to freezing the pellets at -70°C. The next day the cells are resuspended in 12ml Buffer 1 (50mM Tris, pH 7.5, 10% sucrose, 2mM DTT, 5mM EDTA, 1mM PMSF) and the volume split into two 13ml Oakridge ultracentrifuge tubes. 1ml Buffer 1 containing 3mg lysozyme is added to each tube and the tubes left on ice for 1 hr. […] The cleared supernatant is then aliquoted and frozen at -70°C.
The 1ml bed volume column is prepared by passing 10ml Buffer 1 followed by 10ml Absorption Buffer (50mM Tris, pH 7.5, 10% sucrose, 2mM DTT, 25mM MgAc2, 10mM ATP) over the column. Two ml of the cleared lysate is mixed with 2 ml of Absorption Buffer and passed through a 0.2µm filter. This mix is passed over the column 3 times. The column is washed with 5ml Absorption buffer three times and the 5ml fractions collected. […] The column is reactivated by loading on 10ml High Salt Buffer (50mM Tris, pH 7.5, 10% sucrose, 2mM DTT, 0.5M KCl) and 10ml 50mM Tris, pH 7.5. The column is stored in 50mM Tris pH 7.5 + 0.004% sodium azide. The extent of purification is monitored by Coomassie stained SDS:PAGE analysis and the concentration of purified protein determined using the BioRad Reagent (Bradford Reagent).
Km and Vmax values are determined from double reciprocal plots and kcat values are calculated using the equation Vmax = kcat [Eo] where [Eo] is the total enzyme concentration. The BioRad reagent was used to determine the total enzyme concentration of purified thymidine kinase enzymes.

Turning to `Nc1nc2c(ncn2[C@@H]2O[C@H](COP(=O)(O)O)[C@@H](O)[C@H]2O)c(=O)[nH]1` [GMP], the Km came out at 95 µM in experiment [1] and 146 µM in [2].
For `Nc1nc(O)c2ncn(COC(CO)CO)c2n1` [ganciclovir], the IC50 is 18000 nM in [3]; 4400 nM in experiment [4]; 470 nM in experiment [5]; 20000 nM in experiment [6]; 10 nM in experiment [7]; 100 nM in experiment [8]. Also, the IC50 in experiment [9] was > 1000 nM; in experiment [10] it was 150 nM; in experiment [11], 40 nM; in experiment [12], 17 nM; in experiment [13], 5000 nM. Also, the “difference in IC50 between fusion protein and wild-type TK” value in experiment [14] was 100 fold. For the same compound, the “tumor reduction (tumor diameter, final tumor weight)” value in experiment [15] and in [16] was “significant tumor reduction” each time. The Km in [17] (double reciprocal plots) was 10 µM. In experiment [17] (per active site), the kcat entry was “.050 s⁻¹”.
As to `Nc1nc2c(ncn2[C@H]2C[C@H](O)[C@@H](COP(=O)(O)O)O2)c(=O)[nH]1` [dGMP], the Km is 218 µM in experiment [1] and 359 µM in experiment [2].

The values above are taken from EP1914304A1 (priority 1998, dated 1999).
